# What was measured:
# human plasma proteins [1] = assay: OTA binding to human plasma proteins, condition (ii): OTA with or without aspartame in lower compartment; assay type: in vitro ADME
# Protocol: (§1) A further study was performed in order to determine the effect of aspartame on OTA binding on human plasma proteins in vitro.
# (§2) An in-vitro study was performed on plasma samples obtained from healthy human volunteers, from a French blood bank (Centre de transfusion sanguine in Bordeaux), using citrate as anticoagulant. Blood samples were centrifuged at 1800 g for 30 minutes. This pooled human plasma contained 41±3 g of proteins per liter.
# (§3) Static diffusion cells (polypropylene, homemade according to the model provided by Nalgene, USA) containing two compartments (upper and lower) separated by a dialysing membrane having a 10 000 D exclusion limit (Sigma Chemical, USA) were used. This membrane allows OTA and aspartame diffusion and not protein diffusion.
# (§4) A human plasma sample was placed in the upper compartment and a medium (RPMI 1640, Sigma chemical, USA) in the lower one.
# (§5) The plasma binding properties of OTA were evaluated under two different conditions:
# (ii) The upper compartment contained human plasma proteins only and OTA (20, 100 and 500 μg/ml) was added into the lower compartment alone or concommitantly with 10 μg/ml aspartame.
# (§6) OTA concentration in the upper compartment was determined by HPLC (Mobile phase: methanol, acetonitrile, acetic acid, sodium acetate 5 mM (300: 300: 400: 14 v/v/v/v); injection volume 50 μl; flow rate 1 ml/min; run time for one cycle: 10 min and fluorescence detection (excitation at 340 nm and emission at 465 nm).
# (§7) Before extraction of OTA from the plasma, all the studied samples of plasma, which had already fixed OTA, were dialysed against free OTA RPMI medium for at least 15 minutes, one or several times, until no more OTA was found in the lower compartment.
# (§8) The results obtained under condition (i) as defined hereinabove are reported in Table I, whereas the results obtained under condition (ii) are reported in Table II.
# Under condition (ii) (Table II), the aspartame was put in the same compartment as OTA in the non-plasmatic compartment to mimic the stomach (the ration OTA/aspartame=1.5 to 36).
# DNA = DNA adducts by postlabeling with ATP gamma 32P in organs (genotoxicity); assay type: in vivo, rats; conditions: OTA 289 μg/kg every 48 h, 3 weeks
# Protocol: The animals used in this experiment are male rats of the Wistar strain weighing 160±10 g.
# The aspartame is administered by gavage, at the same time as the ochratoxin A, every 48 hours for 3 weeks.
# The control and treated rats are placed in a metabolic cage for 24 hours for urine sampling and then sacrificed.
# The organs of the same animals were used for extraction of the DNA, which was analyzed by the technique of postlabeling with ATP gamma 32P in order to evaluate the genotoxicity by the presence of adducts with DNA bases.
# human plasma proteins [2] = assay: OTA binding to human plasma proteins, condition (i): aspartame in upper (plasma) compartment; assay type: in vitro ADME
# Protocol: as §1, §2, §3, §4, §5
# (i) The aspartame at a concentration of 10 μg/ml was added in the upper compartment containing human plasma proteins before introducing OTA at three different concentrations (20, 100, and 500 μg/ml) in the lower compartment;
# as §6, §7, §8
# all animal species = conditions: cited from earlier work; for toxicity: background statement
# [3] = cited from earlier work; for efficacy in treatment of ochratoxicosis: doses of the order of several grams per day
compound,measurement,setting,value
"C[C@@H]1Cc2c(Cl)cc(C(=O)N[C@@H](Cc3ccccc3)C(=O)O)c(O)c2C(=O)O1 [OTA, chlorodihydroisocoumarinylphenylalanine, reference compound]","Quantities of OTA bound to plasma proteins, OTA alone (Table II)","human plasma proteins [1]; OTA 20 μg/ml, 30 min",163 ± 42 ng/mL
same,"Quantities of OTA bound to plasma proteins, OTA alone (Table II)","human plasma proteins [1]; OTA 20 μg/ml, 60 min",488 ± 41 ng/mL
same,"Quantities of OTA bound to plasma proteins, OTA alone (Table II)","human plasma proteins [1]; OTA 20 μg/ml, 120 min",774 ± 43 ng/mL
same,"Quantities of OTA bound to plasma proteins, OTA alone (Table II)","human plasma proteins [1]; OTA 100 μg/ml, 30 min",491 ± 39 ng/mL
same,"Quantities of OTA bound to plasma proteins, OTA alone (Table II)","human plasma proteins [1]; OTA 100 μg/ml, 60 min",983 ± 48 ng/mL
same,"Quantities of OTA bound to plasma proteins, OTA alone (Table II)","human plasma proteins [1]; OTA 100 μg/ml, 120 min",1296 ± 61 ng/mL
same,"Quantities of OTA bound to plasma proteins, OTA alone (Table II)","human plasma proteins [1]; OTA 500 μg/ml, 30 min",539 ± 41 ng/mL
same,"Quantities of OTA bound to plasma proteins, OTA alone (Table II)","human plasma proteins [1]; OTA 500 μg/ml, 60 min",1347 ± 92 ng/mL
same,"Quantities of OTA bound to plasma proteins, OTA alone (Table II)","human plasma proteins [1]; OTA 500 μg/ml, 120 min",1899 ± 89 ng/mL
same,"DNA adducts in organs (liver, kidney, spleen, etc.), OTA-treated animals",DNA,Adducts are detected in large numbers
same,"Quantities of OTA bound to plasma proteins, OTA alone (Table I)","human plasma proteins [2]; OTA 20 μg/ml, 30 min",215 ± 11 ng/mL
same,"Quantities of OTA bound to plasma proteins, OTA alone (Table I)","human plasma proteins [2]; OTA 20 μg/ml, 60 min",431 ± 18 ng/mL
same,"Quantities of OTA bound to plasma proteins, OTA alone (Table I)","human plasma proteins [2]; OTA 20 μg/ml, 120 min",772 ± 25 ng/mL
same,"Quantities of OTA bound to plasma proteins, OTA alone (Table I)","human plasma proteins [2]; OTA 100 μg/ml, 30 min",442 ± 21 ng/mL
same,"Quantities of OTA bound to plasma proteins, OTA alone (Table I)","human plasma proteins [2]; OTA 100 μg/ml, 60 min",739 ± 17 ng/mL
same,"Quantities of OTA bound to plasma proteins, OTA alone (Table I)","human plasma proteins [2]; OTA 100 μg/ml, 120 min",1231 ± 17 ng/mL
same,"Quantities of OTA bound to plasma proteins, OTA alone (Table I)","human plasma proteins [2]; OTA 500 μg/ml, 30 min",556 ± 15 ng/mL
same,"Quantities of OTA bound to plasma proteins, OTA alone (Table I)","human plasma proteins [2]; OTA 500 μg/ml, 60 min",1175 ± 71 ng/mL
same,"Quantities of OTA bound to plasma proteins, OTA alone (Table I)","human plasma proteins [2]; OTA 500 μg/ml, 120 min",1744 ± 112 ng/mL
C[C@@H]1Cc2c(Cl)cc(C(=O)N[C@@H](Cc3ccc(O)cc3)C(=O)O)c(O)c2C(=O)O1 [Tyrosine-OTA],genotoxic effects,"all animal species; metabolite of OTA, Creppy et al., Arch. Toxicol. 64, 279-284 (1990)",seems to be one of the metabolites responsible for the genotoxic effects
C[C@@H]1Cc2ccc(C(=O)N[C@@H](Cc3ccccc3)C(=O)O)c(O)c2C(=O)O1 [ochratoxin B],toxicity,all animal species,does not seem to be toxic
"CCOC(=O)[C@H](Cc1ccccc1)NC(=O)c1cc(Cl)c2c(c1O)C(=O)O[C@H](C)C2 [ochratoxin C, ethyl ester of ochratoxin A]",toxicity,all animal species,effects comparable to those of ochratoxin A
N[C@@H](Cc1ccccc1)C(=O)O [phenylalanine],action in chronic intoxication,[3]; chronic intoxication,"very inadequate, if not non-existent"
same,efficacy in treatment of ochratoxicosis,[3],not totally satisfactory
same,acute toxic effects of OTA and inhibition of protein synthesis,[3]; in vivo and in vitro,makes it possible to prevent the acute toxic effects and the inhibition of protein synthesis
O=C(O)O [sodium bicarbonate],efficacy in treatment of ochratoxicosis,[3],still poor

# Source: patent US5496856A, “Aspartame for its application as a therapeutically active substance” (priority 1993, dated 1996)
